Results published in article PMC12406258, “Uncovering the Unusual Inhibition Mechanism of a Trypanosome Alternative Oxidase Inhibitor Displaying Broad-Spectrum Activity against African Animal Trypanosomes” (Journal of Medicinal Chemistry, 2025).
Where “and” joins values, the source holds several entries; their conditions need not be identical. Equal entries are not always repeated. Where two headings read alike, the source gives them in different places.

What was measured:
[1] = molecular target: T1, recombinant TAO (ΔMTS rTAO) (Trypanosoma brucei brucei, UniProt Q26710); settings: ref earlier reports; cited from earlier work
T1 construct: […]; SUMO (Small Ubiquitin-related Modifier) fusion from the expression system; made in house
T1 sequence (Q26710 26-329, stated change not applied): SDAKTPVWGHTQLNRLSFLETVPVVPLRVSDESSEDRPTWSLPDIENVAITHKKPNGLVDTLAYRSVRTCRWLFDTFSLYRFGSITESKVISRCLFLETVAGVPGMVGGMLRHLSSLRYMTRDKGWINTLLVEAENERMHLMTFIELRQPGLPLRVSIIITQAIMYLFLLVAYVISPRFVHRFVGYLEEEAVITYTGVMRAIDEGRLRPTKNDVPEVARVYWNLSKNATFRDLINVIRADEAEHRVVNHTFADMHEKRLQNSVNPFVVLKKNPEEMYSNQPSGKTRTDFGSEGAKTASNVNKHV

[2] = molecular target: T1, recombinant TAO (ΔMTS rTAO); test: Inhibition of ubiquinol oxidase activity of purified recombinant TAO; format: biochemical, T. brucei
Procedure: This physiologically relevant rTAO enzyme was used throughout this work and in this experiment to study the inhibitory activity of 1.
As previously described, the Ubiquinol oxidase activity measurement was carried out using recombinant TAO lacking the mitochondrial targeting signal (ΔMTS). […] The reaction was carried out in a 1 cm cuvette for 2 min using a V-630 Jasco UV–vis spectrophotometer (Jasco Corporation, Tokyo, Japan). Briefly, the procedure involves preincubating 250 ng of the enzyme for 2 min in a 50 mM Tris-HCl (pH 7.3) buffer containing the detergent octaethylene glycol monododecylether (0.05% (w/v)) in a total reaction volume of 1 mL at 25 °C. […] For the inhibition reaction, 250 ng of the enzyme was preincubated with varying inhibitor concentrations for 2 min using the same buffer before the substrate was added. […] This was achieved using the same protocol but without TAO. […] The residual activities were plotted against the corresponding inhibitor concentration in a GraphPad Prism-9 software to obtain the IC50 value.

[3] = molecular target: T1, recombinant TAO (ΔMTS rTAO); settings: ref reported earlier, cited from earlier work
[4] = test system: STIB900 mouse model; parameters: method as in previous studies; settings: 24 h after the last treatment, 4 × 10 mg/kg ip; ref previous studies; cited from earlier work
[5] = parameters: method as in previous studies; settings: ref previous studies, cited from earlier work
[6] = test system: T. equiperdum WT; test: Resazurin-based drug sensitivity assay, T. equiperdum WT; format: cell-based; settings: Trypanosoma equiperdum
Procedure: (§1) Other Trypanosoma species used in this study include T. evansi AntTat 3/3 (Wild-type); and T. equiperdum BoTat 1 (Bordeaux trypanozoon antigenic type 1) P (wild-type). All the trypanosomes were used only as bloodstream trypomastigotes and cultured in the standard Hirumi’s Modified Iscove’s medium #9 (HMI-9), supplemented with 10% heat-inactivated Fetal Bovine Serum (FBS), 14 μL/L β-mercaptoethanol, and 3.0 g sodium hydrogen carbonate per liter of medium (pH 7.4). Trypanosomes were cultured in vented flasks at 37 °C in a 5% CO2 atmosphere.
(§2) Briefly, this protocol involves preparing a 96-well cell culture plate with a 100 μL serially diluted test compound (200 μM top concentration) in HMI-9 + 10% FBS (24 wells per control drug or test compound, with the 24th well serving as drug-free). This is followed by adjusting the cell density of mid-log-phase trypanosome cultures to the required concentration of 2 × 10^5 cells/mL (2 × 10^4 cells/well). […] All incubations were carried out at 37 °C with 5% CO2. […] EC50 values were calculated using GraphPad Prism 9.0 software via nonlinear regression with an equation for a sigmoidal dose–response curve with variable slope (GraphPad Software Inc., San Diego, CA, USA).

[7] = test system: T. b. brucei WT (s427) trypomastigotes; test: microbe, parasite or virus in culture; format: cell-based; settings: Trypanosoma brucei
Procedure: as §1, §2

[8] = test system: T. brucei B48; test: microbe, parasite or virus in culture; format: cell-based, T. b. brucei; settings: Trypanosoma brucei, read-out: T. brucei B48 EC50
Procedure: as §1, §2

[9] = test system: T. evansi WT; test: Resazurin-based drug sensitivity assay, T. evansi WT; format: cell-based
Procedure: as §1, §2

[10] = test system: T. congolense WT; test: Drug sensitivity assay, T. congolense WT bloodstream forms; format: cell-based; settings: Trypanosoma congolense
Procedure: The susceptibilities of trypanosomes to compound 1 were determined as previously described using the resazurin (Alamar Blue) assay. Briefly, this protocol involves preparing a 96-well cell culture plate with a 100 μL serially diluted test compound (200 μM top concentration) in HMI-9 + 10% FBS (24 wells per control drug or test compound, with the 24th well serving as drug-free). This is followed by adjusting the cell density of mid-log-phase trypanosome cultures to the required concentration of 2 × 10^5 cells/mL (2 × 10^4 cells/well). Then, 100 μL of the adjusted cell density/culture was added to all 24 wells in the plate, then incubating trypanosomes and test compound for 48 h followed by the addition of 20 μL filter-sterilized resazurin solution prepared by adding 25 mg resazurin sodium salt to 200 mL filter-sterilized PBS. This was followed by a further 24 h of incubation. All incubations were carried out at 37 °C with 5% CO2. […] Fluorescence was measured in the 96-well plates with a FLUOstar Optima (BMG Labtech, Durham, NC, USA) at wavelengths of 544 nm for excitation, 590 for emission, and a gain of 1250. EC50 values were calculated using GraphPad Prism 9.0 software via nonlinear regression with an equation for a sigmoidal dose–response curve with variable slope (GraphPad Software Inc., San Diego, CA, USA).

[11] = test system: T. brucei aqp1-3 null; test: microbe, parasite or virus in culture; format: cell-based, T. b. brucei; settings: Trypanosoma brucei, read-out: aqp1-3 null EC50
Procedure: as §1, §2

[12] = test system: T. b. brucei SUR10; test: microbe, parasite or virus in culture; format: cell-based; settings: Trypanosoma brucei, read-out: SUR10 EC50
[13] = read-out: IC50 against rTAO, activity against TAO reported earlier
[14] = read-out: rTAO IC50 (supplementary csv, compounds 4, 6, 8-10, 12), IC50 (µM)

In the case of C/C(=C\Cc1c(O)c(Cl)c(C)c(C=O)c1O)CC/C=C(\C)[C@@H]1CC(=O)C(C)(C)O1 [AF, Ascofuranone, reference compound], the “Type of inhibition of TAO” value [1] is given as “competitive”.

With Cc1cc(O)cc(O)c1C(=O)OCCCCCCCCCCCCCC[P+](c1ccccc1)(c1ccccc1)c1ccccn1 [Compound 2, {14-[(2,4-Dihydroxy-6-methylbenzoyl)-oxy]-tetradecyl}-diphenyl(pyridin-2-yl)-Phosphonium Bromide] the IC50 [2] was 1600 nM.

For Cc1cc(O)ccc1C(=O)CCCCCCCCCCCCCCC[P+](c1ccccc1)(c1ccccc1)c1ccccn1.[Br-] [Compound 3], the IC50 [2] was greater than 5000 nM and the “Inhibition of TAO at the highest concentration tested” value ([2]; 5 μM) was “did not inhibit”.

In the case of Cc1cc(O)ccc1C(=O)OCCCCCCCCCCCCCC[P+](c1ccccc1)(c1ccccc1)c1ccccc1 [Compound 4], the IC50 [3, 13] is given as 0.081 µM and ~0.08 µM.

In the case of Cc1cc(O)ccc1C(=O)OCCCCCCCCCCCCCC[n+]1cccc2ccccc21.[Br-] [Compound 6], the IC50 [3, 14] is listed as 0.03 ± 0.005 µM and the “Type of inhibition of TAO” value [1] is listed as “competitive”.

Work on Cc1c(Cl)c(O)c(Cl)c(O)c1C(=O)OCCCCCCCCCCCCCC[P+](c1ccccc1)(c1ccccc1)c1ccccc1 [Compound 7, {14-[(3,5-Dichloro-2,4-dihydroxy-6-methylbenzoyl)-oxy]-tetradecyl}-Triphenylphosphonium Bromide] yielded an IC50 [2] of 160 nM.

In the case of Cc1cc(O)cc(O)c1C(=O)OCCCCCCCCCCCCCC[P+](c1ccccc1)(c1ccccc1)c1ccccc1.[Br-] [Compound 8], the IC50 [3, 13] is listed as ~0.08 µM and 0.088 µM, the “Type of inhibition of TAO” value [1] is listed as “competitive” and the Reduction of parasitemia [4] is listed as 95%. The “Half-life (phase 2 metabolism)” value ([5]; S9 fraction and cofactor UDPGA) was “approximately 2 h”.

For Cc1cc(O)cc(O)c1C(=O)OCCCCCCCCCCCCCC[n+]1cccc2ccccc21.[Br-] [Compound 9], the IC50 [3, 14] is listed as 0.104 ± 0.011 µM, the Reduction of parasitemia [4] is listed as 95% and the “Phase 2 metabolism” value [5] is listed as “lack of phase 2 metabolism”.

In the case of Cc1cc[n+](CCCCCCCCCCCCCCOC(=O)c2c(C)cc(O)cc2O)cc1 [Compound 10], the IC50 [3, 14] is given as greater than 5 µM.

In the case of N=C(N)c1ccc(/N=N/Nc2ccc(C(=N)N)cc2)cc1 [Dim., Diminazene aceturate], the EC50 [6] is reported as 33.2 ± 10 nM, the EC50 ([7]; read-out: T. b. brucei WT (+5 mM glycerol) EC50) is reported as 81 ± 13 nM and the EC50 ([7]; read-out: T. b. brucei WT (no glycerol) EC50) is reported as 65 ± 21 nM. It also gave an EC50 [8] of 1220 ± 20 nM, an EC50 [9] of 51.4 ± 12 nM and an EC50 [10] of 252 ± 18 nM.

N=C(N)c1ccc(OCCCCCOc2ccc(C(=N)N)cc2)cc1 [Pent., Pentamidine isethionate] showed an EC50 [6] of 8.1 ± 1.1 nM, an EC50 ([7]; read-out: T. b. brucei WT (+5 mM glycerol) EC50, incubated in the presence of 5 mM glycerol) of 6.2 ± 1.7 nM and an EC50 ([7]; s427, no glycerol, n ≥ 4, read-out: T. b. brucei WT (no glycerol) EC50) of 4.2 ± 0.8 nM. The EC50 [8] was 1020 ± 200 nM, the EC50 [11] was 51.4 ± 11.8 nM and the EC50 [9] was 5.1 ± 2.1 nM.

With O=C(NO)c1ccccc1O [SHAM, Salicylhydroxamic acid] the EC50 [11] was 6880 ± 110 nM.

Work on Cc1ccc(C(=O)Nc2ccc(S(=O)(=O)O)c3cc(S(=O)(=O)O)cc(S(=O)(=O)O)c23)cc1NC(=O)c1cccc(NC(=O)Nc2cccc(C(=O)Nc3cc(C(=O)Nc4ccc(S(=O)(=O)O)c5cc(S(=O)(=O)O)cc(S(=O)(=O)O)c45)ccc3C)c2)c1 [Suramin, reference compound] yielded an EC50 [12] of 190 ± 20 nM.
